Reference: patent publication US6506785B2, “Treating or preventing the early stages of degeneration of articular cartilage or subchondral bone in mammals using carprofen and derivatives” (Pfizer, Inc., priority 1998, dated 2003)

Experiments:
[1] = Clearance rates of carprofen-genus enantiomers; conditions: in vivo
Source text: The above-recited ranges of dosage amounts, which are also recited elsewhere herein, are for racemic mixtures of compounds of Formula (I) having a chiral carbon, or for single compounds of Formula (I) where no chiral carbon atom is present. As will be appreciated by the person of ordinary skill in this art, i.e., a practicing veterinarian or a person with an advanced degree and experience in animal health issues, where other than a racemic mixture of compounds of Formula (I) is involved, the chondroprotective therapeutically effective amount will vary. For example, if 85% of the mixture is (S)-enantiomer, that will ordinarily tend to reduce the necessary dosage. […] However, the degree of difference between the activities of the two enantiomers must also take into account other differences, especially differences in pharmacokinetics between the two enantiomers, in determining the proper dosage. […] This, in turn, will have a calculable impact on the amount of active compound to be administered. Ordinarily, such determinations will be made on a case-by-case basis by the artisan, but these are well within the ordinary skill of the art, as is instituting the methods whereby data necessary for the supporting calculations may be obtained.

[2] = in vivo, po
Method: Accordingly, a useful controlled release dosage form of carprofen in accordance with the present invention is one which maintains a carprofen plasma level greater than 2 μg/mL for most of the day after a single oral dose at 2 mg/lb.
Immediate release carprofen dosage forms containing doses of 1.8, 1.6, and 1.4 mg/lb maintain a plasma carprofen concentration above 10 μg/mL for 9.5 hrs, 8.5 hrs, and 7.5 hrs, respectively. Preferred 1.8 mg/lb oral controlled release carprofen dosage forms maintain a plasma carprofen concentration above 10 μg/mL for greater than 9.5 hrs. Likewise, the threshold durations for 1.6 mg/lb and 1.4 mg/lb doses are 8.5 hrs and 7.5 hrs, respectively. The performance characteristics for preferred oral controlled release carprofen dosage forms at doses higher than 2 mg/lb or less than 1.4 mg/lb can be similarly calculated, assuming linear pharmacokinetics. More preferred oral controlled release carprofen dosage forms are those which maintain a plasma carprofen concentration greater than 10 μg/mL for a period of time greater than or equal to that observed when an immediate release carprofen dosage form is dosed at any higher dose. […]

[3] = tested on: cultured osteoarthritic mammal chondrocytes / cartilage explants; conditions: cited from earlier work
articular cartilage = conditions: cited from earlier work
[4] = tested on: atrophied mammal articular cartilage; conditions: in vivo; cited from earlier work
[5] = tested on: cartilage homeostasis in osteoarthritic joints; conditions: compared with control joints; cited from earlier work

Molecule: C[C@H](C(=O)O)c1ccc2c(c1)[nH]c1ccc(Cl)cc12 (single isomer, unassigned) [(+)(S) enantiomer]
- clearance rates, (+)(S) versus (−)(R) enantiomer [1]: significant difference in clearance rates

Molecule: C[C@@H](C(=O)O)c1ccc2c(c1)[nH]c1ccc(Cl)cc12 (single isomer, unassigned) [(−)(R) enantiomer]
- clearance rates, (+)(S) versus (−)(R) enantiomer [1]: significant difference in clearance rates

Molecule: CC(C(=O)O)c1ccc2c(c1)[nH]c1ccc(Cl)cc12 (stereo not drawn) [carprofen, 6-chloro-α-methyl-9H-carbazole-2-acetic acid]
- time plasma carprofen levels are maintained above approximately 10 μg/mL [2]: 10.5 h
- cartilage GAG synthesis ([3]; carprofen concentrations of 1 and 10): selectively stimulating new cartilage GAG synthesis
- cartilage proteoglycan breakdown ([3]; carprofen concentrations of 1 and 10 μL/ml): without any direct effect on cartilage proteoglycan breakdown

Molecule: Pentosan polysulfate [PPS]
- articular cartilage damage (articular cartilage; gross and histologic evaluation): significantly decrease articular cartilage damage
- articular cartilage proteoglycan content (articular cartilage; in vivo): maintenance of normal articular cartilage proteoglycan content

Molecule: hyaluronic acid [HA]
- effect on atrophied articular cartilage [4]: chondrostabilizing effect

Molecule: polysulfated glycosaminoglycan [PSGAG]
- microscopic structural alteration [5]: decreased microscopic structural alteration
- proteinase activity [5]: decreased proteinase activity
- proteoglycan in cartilage [5]: retention of proteoglycan in cartilage
